Among the data in PubChem BioAssay AID1013 (Columbia University Molecular Screening Center, 2008) are IC50 and cell count values, retold here.

Calls of active or inactive are those of the source. No rule for the calls is given here.

Test [1] relates to TNFa-stimulated cells, VCAM1 expression imaging. Kind of test: blockers of VCAM1 upregulation by TNFa – imaging, TNFa stimulus, retest and dose response, confirmation (AID 1013).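 As to cell count: compound on cells 1 h before TNFa then 24 h more.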
Assay in test [2]: as above
As to conditions: TNFa-stimulated cells, VCAM1 expression imaging; cell count; at 10 µM; stronger effect = lower value.

As to `C=CCSc1nc2ccccc2n1C(=O)/C=C/c1cc(OC)c(OC)c(OC)c1`, the IC50 (in general, the point on the concentration scale where inhibition reaches its midpoint) in test [1] was > 10 µM (inactive). This compound came in with a cell count in test [2] of 106%.
The like results for `Cc1ccc(NC2=C/C(=N\S(=O)(=O)c3cccs3)c3ccccc3C2=O)c(C)c1` were, in that order, > 10 µM (inactive) and 104%.
The like results for `O=c1cc(C(Cl)(Cl)Cl)oc2c1ccc1ccccc12` were, in that order, > 10 µM (inactive) and 104%.
The like results for `COc1cc(/C=C(/C#N)C(=O)NCCc2c[nH]c3ccccc23)ccc1OCc1ccccc1F` were, in that order, > 10 µM (inactive) and 98.2%.
Turning to `COC(=O)c1ccccc1NC(=O)Cn1c(-c2nonc2N)nc2ccccc21`, the IC50 in test [1] was > 10 µM (inactive). Besides, the cell count in test [2] was found to be 104%.
The corresponding values for `O=C(CS(=O)c1ccc(C(F)(F)F)cc1[N+](=O)[O-])Oc1ccc(Cl)cc1` (centres undefined) are > 10 µM (inactive) and 111%.
The like results for `C=CCn1c(SCc2c(C)noc2C)nc2ccccc2c1=O` were, in that order, > 10 µM (inactive) and 43.3%.
As for `CC(=O)c1ccc(Oc2cc(C)nc(-n3nc(C)cc3C)n2)cc1`, in test [1], the IC50 is 3.83 µM. For the same compound, the cell count in test [2] stood at 46.9%.
`CC(=O)c1c(C)oc2ccc(N(C(C)=O)S(=O)(=O)c3ccc(Cl)c([N+](=O)[O-])c3)cc12`: the IC50 in test [1] was > 10 µM (inactive). The same compound came in with a cell count in test [2] of 104%.
The corresponding values for `O=C1C(=O)c2ccc(-c3ccccc3)cc2-c2ccccc21` are > 10 µM (inactive) and 109%.
As for `O=[N+]([O-])/C=C/c1c(OCc2ccccc2)ccc2ccccc12`, in test [1], the IC50 was > 10 µM (inactive). In test [2], this compound displayed a cell count of 112%.
`Cc1cc(NC(=O)CSc2nc(-c3cccs3)cc(C(F)(F)F)n2)no1`: the IC50 in test [1] is > 10 µM (inactive). The compound also yielded a cell count in test [2] of 111%.
The like results for `CCN(CC)c1ccc(C2=NNC(=O)CC2C)cc1[N+](=O)[O-]` (centres undefined) were, in that order, 0.0384 µM and 50.8%.
The like results for `Cc1ccc(Nc2nc(-c3c(C)nc4ccccn34)cs2)cc1` were, in that order, 3.8 µM and 27.9%.
The like results for `Cc1ccc(-n2ncc3c(N4CCN(c5ccccc5)CC4)ncnc32)c(C)c1` were, in that order, > 10 µM (inactive) and 111%.
Consider `COc1ccc(C(=O)c2ccc(N(C)C)cc2)c2ccccc12`, for which the IC50 in test [1] was > 10 µM (inactive). Also, the cell count in test [2] was determined as 93.2%.
The corresponding values for `O=C1c2cccc3c([N+](=O)[O-])ccc(c23)C(=O)N1c1nccs1` are > 10 µM (inactive) and 101%.
The corresponding values for `Cc1ccc(O)c(NC(=O)C2CC(c3c(F)cccc3Cl)=NO2)c1` (centres undefined) are > 10 µM (inactive) and 105%.
The like results for `CC(/C=N/NC(=O)c1cc(-c2ccc(Cl)cc2)nc2ccccc12)=C\c1ccco1` were, in that order, > 10 µM (inactive) and 116%.
Turning to `O=Cc1cc2ccccc2nc1SCc1ccc(Cl)c(Cl)c1`, the IC50 in test [1] was > 10 µM (inactive). In test [2], this compound gave a cell count of 109%.
The corresponding values for `Cc1ccc2[nH]c3c(c2c1)CCC3=O` are 1 µM and 72%.
The like results for `NC(=S)N/N=C/c1ccc(-c2ccc(Cl)c(Cl)c2)o1` were, in that order, > 10 µM (inactive) and 93.5%.
The like results for `O=C1CCCc2c1[nH]c1ccc(Cl)cc21` were, in that order, 0.888 µM and 61.6%.
For `O=C1C(=O)c2ccccc2-c2ccccc21`, the concentration for half-maximal inhibition (IC50) in test [1] is 3 µM. Besides, in test [2], the cell count was determined as 44.1%.
For `COc1ccc(CS(=O)(=O)/C(Cl)=C(/Cl)C(=O)Nc2ccc(OC)nc2)cc1`, the 50% inhibitory concentration (IC50) in test [1] was 2 µM. The same compound had a cell count in test [2] of 2.22%.
The like results for `COc1ccc(OC)c(NS(=O)(=O)c2ccc(N3CCCC3=O)cc2)c1` were, in that order, 2.93 µM and 43.7%.
Consider `COc1ccc(-c2cc(C(F)(F)F)n3nc(C(=O)Nc4cc(C)on4)cc3n2)cc1OC`, for which the IC50 in test [1] is > 10 µM (inactive). The cell count in test [2] came to 97.9%.
The like results for `COCCOC(=O)c1[nH]c2c(c1C)C(=O)CC(c1ccccc1)C2` (centres undefined) were, in that order, > 10 µM (inactive) and 63%.
The corresponding values for `CCCOc1ccc(C(=O)C(CN2CCOCC2)c2ccccc2)cc1` (centres undefined) are 5.2 µM and 79.7%.
In the case of `Cc1ccc2nc(SCC(=O)Nc3cc(C(F)(F)F)ccc3N3CCOCC3)[nH]c2c1`, the IC50 in test [1] is > 10 µM (inactive). For the same compound, in test [2], the cell count came to 105%.
The like results for `Oc1ccc(Nc2nc(-c3ccc4ccccc4c3)cs2)cc1` were, in that order, > 10 µM (inactive) and 92.9%.
On to `COc1ccc(C(=O)c2c(C(F)(F)F)oc3c2C(=O)c2ccccc2C3=O)cc1`, for which the IC50 in test [1] was > 10 µM (inactive). Also, the cell count in test [2] was 105%.
